System: MBT-2 tumors
Experiment: Anti-tumoral activity in MBT-2 syngeneic ectotopic (subcutaneous) tumor model
Type: in vivo, mouse
Parameters: key to Statistical significance for tumor growth versus Anti-PD-1: p value < 0.05*; ns: Ns: non significant
Description: The aim of this study is to determine the anti-tumoral activity of ABX196 or of anti-PD-1 antibody, administered systemically alone, in MBT2 syngeneic ectotopic models and in particular, to evaluate the capacity of these agents to treat established sub-cutaneous tumors.
Anti-PD-1 antibody (ref.: BE0146, BioXcell; clone: RMP1-14, reactivity: mouse; isotype: Rat IgG2a; storage conditions: +4° C.). Anti-PD-1 antibody is prepared in phosphate buffered saline (PBS) or other suitable vehicle according to manufacturer's recommendation. The anti-PD-1 antibody is administered at the dose of 10 mg/kg. Anti-PD-1 antibody is injected into the peritoneal cavity of mice (Intraperitoneally, IP). Anti-PD-1 antibody is administered at a dose volume of 10 mL/kg/adm.
ABX196 is provided as a solution at […] and is administered at the dose of 100 ng per mouse. ABX196 is injected by the intravenous route in the caudal vein of mice (IV, bolus). ABX196 is administered at a fixed dose volume of 100 μL (i.e. approximately 5 mL/kg/adm. for one mouse weighing 20 g).
Tumor cells are grown as monolayer at 37° C. in a humidified atmosphere (5% CO2, 95% air). The culture medium is RPMI 1640 containing 2 mM L-glutamine (ref: BE12-702F, Lonza, Verviers, Belgium) supplemented with 10% fetal bovine serum (ref: 3302, Lonza). Tumor cells are adherent to plastic flasks. For experimental use, tumor cells are detached from the culture flask by a 5-minutes treatment with trypsin-versene (ref: BE02-007E, Lonza), in Hanks' medium without calcium or magnesium (ref: BE10-543F, Lonza) and neutralized by addition of complete culture medium.
68 (sixty-eight) healthy female C3H/HeJ (C3H/HeOuJ) mice, 6-7 weeks old, are obtained from The Jackson Laboratory (Bar Harbor, Me.) for the MBT-2 model.
MBT-2 tumors are induced by subcutaneous injection of 1×10^6 cells in 200 μL of RPMI 1640 into the right flank of the sixty-eight female animals.
The treatment starts when the tumors reach a mean volume of 80-120 mm^3 (day 13 in this experiment). The sixty-eight mice for the MBT-2 model are randomized according to their individual tumor volume into 4 groups each (one not shown) of 12 animals using Vivo Manager® software (Biosystemes, Couternon, France). A statistical test (analysis of variance, ANOVA) is performed to test for homogeneity between groups. The treatment schedule was chosen as follows:
Animals from group 1 receive an IV injection of ABX196 vehicle and an IP injection of anti-PD-1 antibody vehicle,
Animals from group 2 receive an IV injection of 100 ng of ABX196,
Animals from group 3 receive twice weekly administrations of anti-PD-1 antibody,
Tumor growth inhibition (T/C) is defined as the ratio of the median tumor volumes of treated versus control group. The optimal value is the minimal T/C ratio reflecting the maximal tumor growth inhibition achieved.

[1] = day 20, one way ANOVA, pair wise Bonferroni's multiple comparison test

CCCCCCCCCCCCCCCCCCCCCCCC(=O)N[C@@H](CO[C@H]1O[C@H](CNC(C)=O)[C@H](O)[C@H](O)[C@H]1O)[C@H](O)[C@H](O)CCCCCCCCCCCCCC [ABX196]
T/C (%) (tumor growth inhibition, ratio of median tumor volumes of treated versus control group) (C3H/HeJ mice with subcutaneous MBT-2 tumors, day 23 after tumor induction, ABX196 100 ng IV Q1Dx1, anti-PD-1 10 mg/kg IP TWx2): 54%
Statistical significance for tumor growth versus Anti-PD-1 [1]: ns
Statistical significance for tumor growth versus Vehicle [1]: * (p value < 0.05*)
Mean tumor volume in function of time after tumor induction (FIG. 1), compared with anti-PD-1 antibodies (subcutaneous MBT-2 tumors, ABX196 100 ng IV Q1Dx1): reduces more efficiently the tumor volume than anti-PD-1 antibodies
Tumor growth inhibition (FIG. 2), compared with anti-PD-1 antibodies (subcutaneous MBT-2 tumors, day 23, ABX196 100 ng IV Q1Dx1): inhibits more efficiently the tumor growth than anti-PD-1 antibodies
